The values below come from US8883213B2, “Ion exchange resin treated to control swelling” (Coating Place, Inc., priority 2005, dated 2014).

Counter-ions that a name gives are not always drawn.

Data set [1] is described as follows: Release of both drugs from coated layer loaded compound B-phenylephrine HCl-IRP-69 drug-resin complex (Table VII). As to conditions: from coated layer loaded compound B-phenylephrine HCl-IRP-69 complex. The class given is physicochemical. Here is the method: The present invention also provides compositions and methods of releasing two or more pharmaceutical compositions. For example, a phenylephrine HCl and IRP-69 drug-resin complex is prepared using any of the methods disclosed herein or as disclosed in the prior art. The phenylephrine HCl and IRP-69 drug-resin complex is directly loaded with a second drug (e.g., compound B) by spray applying a solution containing compound B to the phenylephrine HCl-IRP-69 drug-resin complex. This layer loaded complex (compound B-phenylephrine HCl-IRP-69 drug-resin complex) is then coated as previously described.

A short description of data set [2]: Release profile of phenylephrine hydrochloride from drug-resin complex with a 25% coating (Table V). The class given is physicochemical.

Turning to `CNC[C@H](O)c1cccc(O)c1` [Phenylephrine Hydrochloride], the Released was 48% in data set [1] (0.5 hour); 55% in data set [1] (1.0 hour); 76% in data set [1] (1.5 hour); 81% in data set [1] (2.0 hour); 92% in data set [1] (4.0 hour). Besides, the “% Released” value in data set [2] (0.5 hr) is reported as 25.5%; in data set [2] (1.0 hr), 30.5%; in data set [2] (3.0 hr), 61.0%; in data set [2] (6.0 hr) it was 93.0%; in data set [2] (12.0 hr), 97.0%.
